Test results reported in ChEMBL document CHEMBL4396901, “Discovery of Potent and Noncovalent Reversible EGFR Kinase Inhibitors of EGFRL858R/T790M/C797S” (ACS Med Chem Lett, 2019).
Calls of active or inactive are those of the source. The calls are words filed in the database; no cut-off is given here.

Legend:
[1] = Oral bioavailability in rat at 10 mg/kg measured for 0.083 to 24 hrs by LC-MS/MS analysis; format: ADME, organism-based; details: in vivo
BaF3 [2] = assay: Antiproliferative activity against mouse BAF3 cells transfected with EGFR 19D/T790M/C797S mutant (unknown origin) incubated for 72 hrs by resazurin dye based assay; format: functional, cell-based; details: BaF3, 72 h
[3] = molecular target: Epidermal growth factor receptor (Homo sapiens, UniProt P00533, C797S/EX19DEL/T790M); assay: Inhibition of EGFR 19D/T790M/C797S mutant (unknown origin) using poly (Glu,Tyr) 4:1 as substrate incubated for 1 hr in presence of ATP by ELISA
[4] = molecular target: Hepatocyte growth factor receptor (Homo sapiens) (UniProt P08581); assay: Inhibition of MET (unknown origin) at 100 nM relative to control
[5] = molecular target: Inhibitor of NF-kappa-B kinase (IKK) (Homo sapiens) (UniProt O14920+O15111+Q9Y6K9); assay: Inhibition of IKK (unknown origin) at 100 nM relative to control; format: protein-complex assay
[6] = molecular target: Insulin receptor (Homo sapiens) (UniProt P06213); assay: Inhibition of IR (unknown origin) at 100 nM relative to control
NCI-H1975 = assay: Antiproliferative activity human NCI-H1975 cells incubated for 72 hrs by SRB assay; format: functional, cell-based; details: NCI-H1975, 72 h
[7] = molecular target: Vascular endothelial growth factor receptor 3 (Homo sapiens) (UniProt P35916); assay: Inhibition of VEGFR3 (unknown origin) at 100 nM relative to control
[8] = molecular target: Fibroblast growth factor receptor 1 (Homo sapiens) (UniProt P11362); assay: Inhibition of FGFR1 (unknown origin) at 100 nM relative to control
[9] = molecular target: Insulin-like growth factor 1 receptor (Homo sapiens) (UniProt P08069); assay: Inhibition of IGF1R (unknown origin) at 100 nM relative to control
[10] = molecular target: Receptor tyrosine-protein kinase erbB-2 (Homo sapiens) (UniProt P04626); assay: Inhibition of ErbB2 (unknown origin) at 100 nM relative to control
[11] = molecular target: Receptor tyrosine-protein kinase erbB-4 (Homo sapiens) (UniProt Q15303); assay: Inhibition of ErbB4 (unknown origin) at 100 nM relative to control
[12] = molecular target: Tyrosine-protein kinase receptor UFO (Homo sapiens) (UniProt P30530); assay: Inhibition of AXL (unknown origin) at 100 nM relative to control
[13] = molecular target: Ephrin type-B receptor 2 (Homo sapiens) (UniProt P29323); assay: Inhibition of EPHB2 (unknown origin) at 100 nM relative to control
[14] = molecular target: Platelet-derived growth factor receptor alpha (Homo sapiens) (UniProt P16234); assay: Inhibition of PDGFRalpha (unknown origin) at 100 nM relative to control
[15] = molecular target: Vascular endothelial growth factor receptor 2 (Homo sapiens) (UniProt P35968); assay: Inhibition of VEGFR2 (unknown origin) at 100 nM relative to control
[16] = molecular target: Receptor-type tyrosine-protein kinase FLT3 (Homo sapiens) (UniProt P36888); assay: Inhibition of FLT3 (unknown origin) at 100 nM relative to control
[17] = molecular target: Tyrosine-protein kinase TXK (Homo sapiens) (UniProt P42681); assay: Inhibition of Txk (unknown origin) at 100 nM relative to control
[18] = molecular target: Epidermal growth factor receptor (Homo sapiens, UniProt P00533, C797S/L858R/T790M); assay: (§1) Inhibition of recombinant human C-terminal His-tagged/N-terminal GST-tagged EGFR (668 to 1210 residues) T790M/L858R/C797S mutant expressed in baculovirus expression system using poly (Glu,Tyr) 4:1 as substrate incubated for 1 hr in presence of ATP by ELISA
[19] = system: Epidermal growth factor receptor (Homo sapiens), P00533 [L858R,T790M,C797S]; assay: Inhibition of recombinant human C-terminal His-tagged/N-terminal GST-tagged EGFR (668 to 1210 residues) T790M/L858R/C797S mutant expressed in baculovirus expression system at 100 nM using poly (Glu,Tyr) 4:1 as substrate incubated for 1 hr in presence of ATP by ELISA relative to control
BaF3 [20] = assay: Cytotoxicity against mouse BAF3 cells incubated for 72 hrs by resazurin dye based assay; format: cell-based; details: BaF3, 72 h
[21] = molecular target: Mast/stem cell growth factor receptor Kit (Homo sapiens) (UniProt P10721); assay: Inhibition of cKIT (unknown origin) at 100 nM relative to control
[22] = molecular target: Fibroblast growth factor receptor 4 (Homo sapiens) (UniProt P22455); assay: Inhibition of FGFR4 (unknown origin) at 100 nM relative to control
[23] = Aqueous solubility of the compound in PBS buffer at pH 6.8 by UV-Vis spectrophotometric method; format: physicochemical
[24] = Clearance in rat at 1 mg/kg, iv measured for 0.083 to 24 hrs by LC-MS/MS analysis; format: ADME, organism-based; details: in vivo
[25] = molecular target: Proto-oncogene tyrosine-protein kinase receptor Ret (Homo sapiens) (UniProt P07949); assay: Inhibition of RET (unknown origin) at 100 nM relative to control
[26] = molecular target: Ephrin type-A receptor 2 (Homo sapiens) (UniProt P29317); assay: Inhibition of EPHA2 (unknown origin) at 100 nM relative to control
[27] = molecular target: Fibroblast growth factor receptor 2 (Homo sapiens) (UniProt P21802); assay: Inhibition of FGFR2 (unknown origin) at 100 nM relative to control
[28] = molecular target: Tyrosine-protein kinase Blk (Homo sapiens) (UniProt P51451); assay: Inhibition of BLK (unknown origin) at 100 nM relative to control
[29] = molecular target: Vascular endothelial growth factor receptor 1 (Homo sapiens) (UniProt P17948); assay: Inhibition of VEGFR1 (unknown origin) at 100 nM relative to control
A-431 = assay: Antiproliferative activity human A431 cells incubated for 72 hrs by SRB assay; format: functional, cell-based; details: A-431, 72 h
[30] = molecular target: ALK tyrosine kinase receptor (Homo sapiens) (UniProt Q9UM73); assay: Inhibition of ALK (unknown origin) at 100 nM relative to control
[31] = molecular target: Tyrosine-protein kinase JAK1 (Homo sapiens) (UniProt P23458); assay: Inhibition of JAK1 (unknown origin) at 100 nM relative to control
[32] = molecular target: Tyrosine-protein kinase ABL1 (Homo sapiens) (UniProt P00519); assay: Inhibition of Abl (unknown origin) at 100 nM relative to control
[33] = molecular target: Tyrosine-protein kinase BTK (Homo sapiens) (UniProt Q06187); assay: Inhibition of BTK (unknown origin) at 100 nM relative to control
[34] = molecular target: Cytoplasmic tyrosine-protein kinase BMX (Homo sapiens) (UniProt P51813); assay: Inhibition of BMX (unknown origin) at 100 nM relative to control
[35] = molecular target: Macrophage colony-stimulating factor 1 receptor (Homo sapiens) (UniProt P07333); assay: Inhibition of CSF1R (unknown origin) at 100 nM relative to control
[36] = system: Epidermal growth factor receptor (Homo sapiens), P00533 [L858R,T790M,C797S]; assay: Inhibition of EGFR L858R/T790M/C797S mutant (unknown origin) transfected in mouse BAF3 cells assessed as inhibition of EGF-induced EGFR phosphorylation by Western blot analysis; format: cell-based
[37] = molecular target: NT-3 growth factor receptor (Homo sapiens) (UniProt Q16288); assay: Inhibition of TrkC (unknown origin) at 100 nM relative to control
[38] = molecular target: Platelet-derived growth factor receptor beta (Homo sapiens) (UniProt P09619); assay: Inhibition of PDGFRbeta (unknown origin) at 100 nM relative to control
[39] = molecular target: Proto-oncogene tyrosine-protein kinase Src (Homo sapiens) (UniProt P12931); assay: Inhibition of Src (unknown origin) at 100 nM relative to control
[40] = system: Epidermal growth factor receptor (Homo sapiens), P00533 [L858R,T790M,C797S]; assay: Inhibition of EGFR L858R/T790M/C797S mutant (unknown origin) transfected in mouse BAF3 cells assessed as inhibition of EGF-induced EGFR phosphorylation at 0.1 uM by Western blot analysis; format: cell-based
[41] = molecular target: Focal adhesion kinase 1 (Homo sapiens) (UniProt Q05397); assay: Inhibition of FAK (unknown origin) at 100 nM relative to control
BaF3 [42] = assay: Antiproliferative activity against mouse BAF3 cells transfected with EGFR L858R/T790M/C797S mutant (unknown origin) incubated for 72 hrs by resazurin dye based assay; format: functional, cell-based; details: BaF3, 72 h
[43] = molecular target: Fibroblast growth factor receptor 3 (Homo sapiens) (UniProt P22607); assay: Inhibition of FGFR3 (unknown origin) at 100 nM relative to control
[44] = molecular target: Tyrosine-protein kinase JAK3 (Homo sapiens) (UniProt P52333); assay: Inhibition of JAK3 (unknown origin) at 100 nM relative to control
[45] = molecular target: Tyrosine-protein kinase Yes (Homo sapiens) (UniProt P07947); assay: Inhibition of YES (unknown origin) at 100 nM relative to control
[46] = molecular target: High affinity nerve growth factor receptor (Homo sapiens) (UniProt P04629); assay: Inhibition of TrkA (unknown origin) at 100 nM relative to control
[47] = molecular target: BDNF/NT-3 growth factors receptor (Homo sapiens) (UniProt Q16620); assay: Inhibition of TrkB (unknown origin) at 100 nM relative to control
[48] = system: Epidermal growth factor receptor (Homo sapiens), P00533 [L858R,T790M,C797S]; assay: as §1

Sequence of Epidermal growth factor receptor (Homo sapiens), P00533 [L858R,T790M,C797S] (P00533 whole entry T790M/C797S/L858R, the tested form may be a part): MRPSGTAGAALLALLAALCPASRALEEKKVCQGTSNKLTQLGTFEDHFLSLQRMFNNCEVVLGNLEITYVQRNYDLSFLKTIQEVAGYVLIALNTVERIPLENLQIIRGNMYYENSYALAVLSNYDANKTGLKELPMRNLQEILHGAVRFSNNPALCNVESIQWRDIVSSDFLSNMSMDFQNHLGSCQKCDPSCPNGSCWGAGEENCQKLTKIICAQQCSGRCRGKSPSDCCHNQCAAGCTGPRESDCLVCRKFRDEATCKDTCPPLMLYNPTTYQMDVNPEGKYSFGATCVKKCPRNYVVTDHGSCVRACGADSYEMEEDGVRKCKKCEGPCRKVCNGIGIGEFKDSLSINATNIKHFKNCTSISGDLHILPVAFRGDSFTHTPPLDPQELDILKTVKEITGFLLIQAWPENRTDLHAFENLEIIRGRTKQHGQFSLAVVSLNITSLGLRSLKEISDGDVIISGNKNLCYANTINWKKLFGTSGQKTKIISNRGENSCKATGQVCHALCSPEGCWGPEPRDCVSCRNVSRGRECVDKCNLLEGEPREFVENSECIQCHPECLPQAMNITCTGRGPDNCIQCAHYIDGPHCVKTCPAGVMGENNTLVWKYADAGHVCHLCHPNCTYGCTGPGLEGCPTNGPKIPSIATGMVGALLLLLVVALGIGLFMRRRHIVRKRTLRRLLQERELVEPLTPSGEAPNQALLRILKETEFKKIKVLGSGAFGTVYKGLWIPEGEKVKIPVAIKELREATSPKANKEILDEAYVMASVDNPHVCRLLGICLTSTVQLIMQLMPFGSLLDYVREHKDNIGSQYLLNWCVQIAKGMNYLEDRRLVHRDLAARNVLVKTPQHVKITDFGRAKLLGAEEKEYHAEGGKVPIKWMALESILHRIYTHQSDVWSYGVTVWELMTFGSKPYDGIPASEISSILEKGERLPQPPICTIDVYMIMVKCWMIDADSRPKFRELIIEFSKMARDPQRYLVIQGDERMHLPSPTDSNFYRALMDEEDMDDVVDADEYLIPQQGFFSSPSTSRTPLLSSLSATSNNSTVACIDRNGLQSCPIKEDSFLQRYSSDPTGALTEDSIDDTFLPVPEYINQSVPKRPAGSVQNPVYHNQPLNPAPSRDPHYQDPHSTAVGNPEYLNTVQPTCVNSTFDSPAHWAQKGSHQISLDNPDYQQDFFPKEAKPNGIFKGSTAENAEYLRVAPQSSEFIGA
Sequence of Vascular endothelial growth factor receptor 2 (Homo sapiens) (P35968 whole entry): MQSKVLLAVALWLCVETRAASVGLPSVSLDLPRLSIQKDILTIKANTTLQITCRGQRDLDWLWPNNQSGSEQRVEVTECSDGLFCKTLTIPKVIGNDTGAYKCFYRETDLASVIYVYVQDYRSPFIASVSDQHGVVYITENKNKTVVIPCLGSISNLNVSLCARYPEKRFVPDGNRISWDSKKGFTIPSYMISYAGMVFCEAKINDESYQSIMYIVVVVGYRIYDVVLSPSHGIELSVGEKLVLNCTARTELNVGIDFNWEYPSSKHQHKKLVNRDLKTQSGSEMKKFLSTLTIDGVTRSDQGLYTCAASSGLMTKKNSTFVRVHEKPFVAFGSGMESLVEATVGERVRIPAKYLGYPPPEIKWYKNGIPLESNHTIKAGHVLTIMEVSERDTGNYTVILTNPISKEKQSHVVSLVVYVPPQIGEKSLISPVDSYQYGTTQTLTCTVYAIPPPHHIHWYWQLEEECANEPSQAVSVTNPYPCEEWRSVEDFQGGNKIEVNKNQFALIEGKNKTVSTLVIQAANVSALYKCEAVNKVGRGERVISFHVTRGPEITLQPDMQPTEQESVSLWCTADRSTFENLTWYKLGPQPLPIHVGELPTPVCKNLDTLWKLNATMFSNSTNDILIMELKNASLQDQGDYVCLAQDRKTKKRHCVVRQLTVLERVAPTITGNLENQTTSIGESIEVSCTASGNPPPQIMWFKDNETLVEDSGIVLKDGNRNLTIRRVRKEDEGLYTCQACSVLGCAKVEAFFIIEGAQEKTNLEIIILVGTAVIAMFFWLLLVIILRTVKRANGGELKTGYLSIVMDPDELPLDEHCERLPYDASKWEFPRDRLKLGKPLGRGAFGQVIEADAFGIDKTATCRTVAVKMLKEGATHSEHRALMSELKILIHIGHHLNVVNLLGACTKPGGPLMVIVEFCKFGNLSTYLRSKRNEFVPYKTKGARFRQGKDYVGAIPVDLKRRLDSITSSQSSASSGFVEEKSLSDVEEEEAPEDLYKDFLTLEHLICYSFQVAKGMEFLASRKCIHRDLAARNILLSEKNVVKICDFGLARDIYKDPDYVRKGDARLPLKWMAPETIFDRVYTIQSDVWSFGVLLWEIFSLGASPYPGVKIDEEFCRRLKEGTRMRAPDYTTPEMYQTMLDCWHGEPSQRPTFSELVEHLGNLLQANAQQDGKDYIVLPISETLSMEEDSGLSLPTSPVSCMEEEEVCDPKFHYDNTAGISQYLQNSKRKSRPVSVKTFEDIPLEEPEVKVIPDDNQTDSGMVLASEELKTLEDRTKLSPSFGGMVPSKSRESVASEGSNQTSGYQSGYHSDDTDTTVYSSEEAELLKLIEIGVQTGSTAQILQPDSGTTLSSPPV
Sequence of Tyrosine-protein kinase Yes (Homo sapiens) (P07947 2-543 limits assumed): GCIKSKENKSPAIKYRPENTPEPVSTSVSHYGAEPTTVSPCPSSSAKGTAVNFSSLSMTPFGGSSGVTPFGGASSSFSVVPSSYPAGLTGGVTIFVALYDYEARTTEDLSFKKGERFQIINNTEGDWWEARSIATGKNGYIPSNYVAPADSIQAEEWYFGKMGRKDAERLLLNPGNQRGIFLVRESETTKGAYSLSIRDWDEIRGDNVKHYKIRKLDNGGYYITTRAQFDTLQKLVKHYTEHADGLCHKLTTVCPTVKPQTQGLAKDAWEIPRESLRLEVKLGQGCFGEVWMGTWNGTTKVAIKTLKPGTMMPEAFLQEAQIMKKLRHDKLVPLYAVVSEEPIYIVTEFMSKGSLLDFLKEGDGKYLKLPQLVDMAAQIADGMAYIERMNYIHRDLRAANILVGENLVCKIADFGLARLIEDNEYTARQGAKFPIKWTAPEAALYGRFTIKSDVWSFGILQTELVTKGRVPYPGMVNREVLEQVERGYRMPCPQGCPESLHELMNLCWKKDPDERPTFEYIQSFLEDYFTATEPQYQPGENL
Sequence of BDNF/NT-3 growth factors receptor (Homo sapiens) (Q16620 32-822 limits assumed): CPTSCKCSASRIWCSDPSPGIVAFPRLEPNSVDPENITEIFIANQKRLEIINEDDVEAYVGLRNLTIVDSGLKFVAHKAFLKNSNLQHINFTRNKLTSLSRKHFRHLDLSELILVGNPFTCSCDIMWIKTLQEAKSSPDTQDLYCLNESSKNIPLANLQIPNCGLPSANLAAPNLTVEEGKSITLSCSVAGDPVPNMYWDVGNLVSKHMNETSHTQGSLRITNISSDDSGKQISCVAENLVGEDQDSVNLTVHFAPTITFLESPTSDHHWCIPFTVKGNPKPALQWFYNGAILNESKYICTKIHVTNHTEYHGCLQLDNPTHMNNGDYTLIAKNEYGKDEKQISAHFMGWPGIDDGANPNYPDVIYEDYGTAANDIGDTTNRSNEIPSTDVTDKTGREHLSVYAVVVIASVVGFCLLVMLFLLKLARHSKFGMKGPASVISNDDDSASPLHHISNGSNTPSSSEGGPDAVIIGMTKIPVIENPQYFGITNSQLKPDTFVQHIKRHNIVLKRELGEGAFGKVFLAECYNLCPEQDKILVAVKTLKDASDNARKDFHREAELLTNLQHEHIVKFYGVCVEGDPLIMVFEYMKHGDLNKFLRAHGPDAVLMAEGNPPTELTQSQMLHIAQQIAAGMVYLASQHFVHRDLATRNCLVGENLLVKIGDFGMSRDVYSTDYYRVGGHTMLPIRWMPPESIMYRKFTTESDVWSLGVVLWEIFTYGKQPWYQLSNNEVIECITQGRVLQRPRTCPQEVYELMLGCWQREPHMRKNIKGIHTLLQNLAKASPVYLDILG
Sequence of Macrophage colony-stimulating factor 1 receptor (Homo sapiens) (P07333 whole entry): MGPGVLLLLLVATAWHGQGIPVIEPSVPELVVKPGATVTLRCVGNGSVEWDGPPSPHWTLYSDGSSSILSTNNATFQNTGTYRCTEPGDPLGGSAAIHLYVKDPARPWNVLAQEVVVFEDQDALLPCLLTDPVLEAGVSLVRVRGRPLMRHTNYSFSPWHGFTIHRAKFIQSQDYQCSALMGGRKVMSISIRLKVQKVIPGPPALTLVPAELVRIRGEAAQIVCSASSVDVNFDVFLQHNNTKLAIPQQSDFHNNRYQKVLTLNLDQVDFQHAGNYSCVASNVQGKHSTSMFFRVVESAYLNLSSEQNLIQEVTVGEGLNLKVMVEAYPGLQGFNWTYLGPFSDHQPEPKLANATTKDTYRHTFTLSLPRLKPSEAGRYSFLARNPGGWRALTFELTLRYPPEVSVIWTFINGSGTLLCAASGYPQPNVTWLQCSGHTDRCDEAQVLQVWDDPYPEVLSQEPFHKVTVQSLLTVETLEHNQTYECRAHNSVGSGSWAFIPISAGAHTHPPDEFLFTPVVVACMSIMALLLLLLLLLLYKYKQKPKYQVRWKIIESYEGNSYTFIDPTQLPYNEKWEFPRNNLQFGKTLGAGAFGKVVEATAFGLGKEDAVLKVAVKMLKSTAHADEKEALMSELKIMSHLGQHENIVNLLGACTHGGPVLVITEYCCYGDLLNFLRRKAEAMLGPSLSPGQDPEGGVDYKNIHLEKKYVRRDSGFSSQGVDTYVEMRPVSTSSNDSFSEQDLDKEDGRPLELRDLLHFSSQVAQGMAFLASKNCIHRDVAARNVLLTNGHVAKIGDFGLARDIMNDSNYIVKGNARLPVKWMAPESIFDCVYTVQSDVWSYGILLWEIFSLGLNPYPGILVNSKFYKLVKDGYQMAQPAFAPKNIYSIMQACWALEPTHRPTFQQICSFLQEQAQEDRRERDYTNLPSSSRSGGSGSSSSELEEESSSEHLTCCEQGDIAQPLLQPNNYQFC

COc1cc2c(Nc3ccc(NC(=O)C(c4cc(F)ccc4F)N4Cc5ccccc5C4=O)cc3F)ncnc2cc1OCC1CCN(C)CC1 (stereo not drawn)
bioavailability [1]: 0.55% | IC50 (BaF3 [2]): 3540 nM | IC50 [3]: 331 nM | inhibition [4]: < 25% | inhibition [5]: < 25% | inhibition [6]: < 25% | IC50 (NCI-H1975): 3030 nM | inhibition [7]: < 25% | inhibition [8]: < 25% | inhibition [9]: < 25% | inhibition [10]: > 90% | inhibition [11]: > 90% | inhibition [12]: 50 to 75% | inhibition [13]: < 25% | inhibition [14]: 50 to 75% | inhibition [15]: 50 to 75% | inhibition [16]: < 25% | inhibition [17]: 50 to 75% | IC50 [18]: 2.2 nM | inhibition [19]: > 90% | IC50 (BaF3 [20]): 7680 nM | inhibition [21]: < 25% | inhibition [22]: < 25% | solubility [23]: Insoluble | clearance [24]: 16 mL/min/kg | inhibition [25]: < 25% | inhibition [26]: < 25% | inhibition [27]: < 25% | inhibition [28]: > 90% | inhibition [29]: < 25% | IC50 (A-431): 1240 nM | inhibition [30]: < 25% | inhibition [31]: < 25% | inhibition [32]: 50 to 75% | inhibition [33]: 50 to 75% | inhibition [34]: < 25% | inhibition [35]: < 25% | inhibition [36]: Dose-dependent effect | inhibition [37]: < 25% | inhibition [38]: 50 to 75% | inhibition [39]: 50 to 75% | inhibition [40]: Active | inhibition [41]: < 25% | IC50 (BaF3 [42]): 640 nM | inhibition [43]: < 25% | inhibition [44]: < 25% | inhibition [45]: < 25% | inhibition [46]: < 25% | inhibition [47]: < 25%

O=C(Nc1nccs1)C(c1cc(F)ccc1O)N1Cc2ccccc2C1=O (stereo not drawn)
IC50 (BaF3 [20]): > 10000 nM

COc1cc2c(Nc3cc(NC(=O)Cc4ccccc4)ccc3F)ncnc2cc1OCC1CCN(C)CC1
inhibition [48]: inactive

COc1cc2c(Nc3ccc(NC(=O)CC4Cc5ccccc5C4)cc3F)ncnc2cc1OCC1CCN(C)CC1
inhibition [48]: inactive

COc1cc2c(Nc3cc(NC(=O)c4ccccc4)ccc3F)ncnc2cc1OCC1CCN(C)CC1
inhibition [48]: inactive
